Reference: patent US6583180B2, “Glucocorticoid receptor modulators” (Abbott Laboratories, priority 2001, dated 2003)

How the values were obtained:
[1] = molecular target: T1, Human glucocorticoid receptors (Homo sapiens, UniProt P04150); test: Radioligand filter binding assay, displacement of 3[H]-dexamethasone from hGR; conditions: read-out: GR Binding (% Inhibition at 1.7 μM)
T1 construct: made in house; host or cells: Sf9 insect cells, recombinant baculovirus (BAC-TO-BAC)
T1 sequence (P04150 1-777): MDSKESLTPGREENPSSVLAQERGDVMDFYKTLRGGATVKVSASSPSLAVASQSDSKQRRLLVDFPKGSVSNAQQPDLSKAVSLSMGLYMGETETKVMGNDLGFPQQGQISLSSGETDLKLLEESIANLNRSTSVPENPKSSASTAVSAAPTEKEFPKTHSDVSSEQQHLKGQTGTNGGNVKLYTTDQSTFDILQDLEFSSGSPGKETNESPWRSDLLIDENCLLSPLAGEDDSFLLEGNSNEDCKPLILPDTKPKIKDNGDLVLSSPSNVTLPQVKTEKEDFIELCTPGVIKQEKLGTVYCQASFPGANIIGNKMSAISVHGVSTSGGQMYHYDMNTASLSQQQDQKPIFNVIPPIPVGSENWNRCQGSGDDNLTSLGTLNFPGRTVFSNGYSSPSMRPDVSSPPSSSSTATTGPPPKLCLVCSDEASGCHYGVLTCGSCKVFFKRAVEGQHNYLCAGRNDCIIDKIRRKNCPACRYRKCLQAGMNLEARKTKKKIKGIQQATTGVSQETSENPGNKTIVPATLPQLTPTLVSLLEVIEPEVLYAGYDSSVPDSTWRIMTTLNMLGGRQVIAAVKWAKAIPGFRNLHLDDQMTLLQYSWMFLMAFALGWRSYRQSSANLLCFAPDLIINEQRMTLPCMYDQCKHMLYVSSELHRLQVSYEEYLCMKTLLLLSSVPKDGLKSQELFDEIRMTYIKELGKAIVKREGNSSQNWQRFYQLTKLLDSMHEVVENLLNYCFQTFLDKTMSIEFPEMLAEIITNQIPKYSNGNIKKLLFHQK
In short: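 Recombinant hGR extract from baculovirus-infected Sf9 cells (final ~1 nM receptor) incubated with ³H-dexamethasone and test compound dilutions in duplicate, EDTA/phosphate pH 8 buffer with MTG, overnight (15-20 h) at +4° C. Bound label collected on PEI-treated GF/B filters and scintillation-counted; IC50 from four-parameter fit of corrected cpm.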

[2] = molecular target: T2, progesterone receptor (PR) (Homo sapiens, UniProt P06401); test: Radioligand binding assay for progesterone receptor (similar protocol);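 note: radioligand binding measured with cytosol preparations containing the human progesterone receptor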
T2 sequence (P06401 1-933): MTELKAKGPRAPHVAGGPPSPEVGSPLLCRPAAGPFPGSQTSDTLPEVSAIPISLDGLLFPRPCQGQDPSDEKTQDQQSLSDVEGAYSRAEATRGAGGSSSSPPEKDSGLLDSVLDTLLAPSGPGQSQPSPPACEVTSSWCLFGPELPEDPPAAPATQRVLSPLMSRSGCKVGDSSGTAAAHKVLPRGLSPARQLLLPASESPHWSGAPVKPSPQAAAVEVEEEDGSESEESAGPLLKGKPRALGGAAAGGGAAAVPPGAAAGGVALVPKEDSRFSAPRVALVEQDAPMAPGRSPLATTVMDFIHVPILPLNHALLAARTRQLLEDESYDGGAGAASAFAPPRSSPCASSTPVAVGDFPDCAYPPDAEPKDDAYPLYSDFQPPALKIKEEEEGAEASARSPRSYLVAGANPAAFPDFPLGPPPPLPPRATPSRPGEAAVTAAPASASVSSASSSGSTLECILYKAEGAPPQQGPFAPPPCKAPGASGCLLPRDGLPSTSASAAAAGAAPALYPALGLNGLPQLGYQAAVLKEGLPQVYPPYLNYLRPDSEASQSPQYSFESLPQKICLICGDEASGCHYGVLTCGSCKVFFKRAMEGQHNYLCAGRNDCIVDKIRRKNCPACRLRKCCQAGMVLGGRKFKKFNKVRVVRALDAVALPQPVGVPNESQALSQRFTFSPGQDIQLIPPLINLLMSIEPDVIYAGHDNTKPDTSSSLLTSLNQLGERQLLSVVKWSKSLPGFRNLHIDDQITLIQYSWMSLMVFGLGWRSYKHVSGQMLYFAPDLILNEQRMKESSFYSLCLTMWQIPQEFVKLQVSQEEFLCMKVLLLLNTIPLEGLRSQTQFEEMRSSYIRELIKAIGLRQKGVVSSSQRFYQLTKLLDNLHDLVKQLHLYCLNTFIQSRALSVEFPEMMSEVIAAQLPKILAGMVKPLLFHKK
Description: Methods for Radiolipand Binding Studies with Human Glucocorticoid and Progesterone Receptor Cytosol

| Structure (SMILES) | inhibition at 1.7 µM [1] [%] | IC50 [2] [nM] |
| --- | --- | --- |
| Cc1c(NS(C)(=O)=O)cccc1N(Cc1ccccc1)Cc1ccc(Oc2ccc(CCC(=O)NCCCC(=O)O)cc2)cc1 [Example 106, 4-{[3-(4-{4-[(benzyl{2-methyl-3-[(methylsulfonyl)amino]phenyl}amino)methyl]phenoxy}phenyl)propanoyl]amino}butanoic acid] | 96 | 1290 |
| Cc1c(NS(C)(=O)=O)cccc1N(Cc1ccc(Oc2cccc(OCC(=O)O)c2)cc1)Cc1ccc(F)cc1F [Example 110, (3-{4-[((2,4-difluorobenzyl){2-methyl-3-[(methylsulfonyl)amino]phenyl}amino)methyl]phenoxy}phenoxy)acetic acid] | 96.5 | 214 |
| Cc1c(NS(C)(=O)=O)cccc1N(Cc1ccccc1)Cc1ccc(Oc2cccc(OC(C)C(=O)O)c2)cc1 (stereo not shown) [Example 111, 2-(3-{4-[(benzyl{2-methyl-3-[(methylsulfonyl)amino]phenyl}amino)methyl]phenoxy}phenoxy)propanoic acid] | 95.3 | 773 |
| Cc1c(NS(C)(=O)=O)cccc1N(Cc1ccccc1)Cc1ccc(Oc2cccc(OCC(=O)NCCCN3CCCC3=O)c2)cc1 [Example 114, 2-(3-{4-[(benzyl{2-methyl-3-[(methylsulfonyl)amino]phenyl}amino)methyl]phenoxy}phenoxy)-N-[3-(2-oxopyrrolidin-1-yl)propyl]acetamide] | 96.7 | 1370 |
| COc1ccc(Oc2ccc(CN(Cc3ccc(F)cc3F)c3cccc(NS(C)(=O)=O)c3C)cc2)cc1OC [Example 141, N-(3-{(2,4-difluorobenzyl)[4-(3,4-dimethoxyphenoxy)benzyl]amino}-2-methylphenyl)methanesulfonamide] | 85.4 | 8050 |
| CC#CCCOc1ccc(CN(Cc2ccc(F)cc2F)c2cccc(NS(C)(=O)=O)c2C)cc1 [Example 143, N-(3-{(2,4-difluorobenzyl)[4-(pent-3-ynyloxy)benzyl]amino}-2-methylphenyl)methanesulfonamide] | 89.3 | > 10000 |

Now from value to compound:

| inhibition at 1.7 µM [1] [%] | IC50 [2] [nM] | Structure (SMILES) |
| --- | --- | --- |
| 93.5 | 1330 | Cc1c(NS(C)(=O)=O)cccc1N(Cc1ccccc1)Cc1ccc(Oc2ccc(CCC(=O)NCCN3CCOCC3)cc2)cc1 [Example 147, 3-(4-{4-[(benzyl{2-methyl-3-[(metbylsulfonyl)amino]phenyl}amino)methyl]phenoxy}phenyl)-N-(2-morpholin-4-ylethyl)propanamide] |
| 94.7 | 4290 | Cc1c(NS(C)(=O)=O)cccc1N(Cc1ccccc1)Cc1ccc(Oc2ccc(CCC(=O)NCCCCCO)cc2)cc1 [Example 149, 3-(4-{4-[(benzyl{2-methyl-3-[(methylsulfonyl)amino]phenyl}amino)methyl]phenoxy}phenyl)-N-(5-hydroxypentyl)propanamide] |
| 94.3 | 2550 | Cc1c(NS(C)(=O)=O)cccc1N(Cc1ccccc1)Cc1ccc(Oc2ccc(CCC(=O)NCCCCO)cc2)cc1 [Example 150, 3-(4-{4-[(benzyl{2-methyl-3-[(methylsulfonyl)amino]phenyl}amino)methyl]phenoxy}phenyl)-N-(4-hydroxybutyl)propanamide] |
| 94.3 | 551 | Cc1c(NS(C)(=O)=O)cccc1N(Cc1ccccc1)Cc1ccc(Oc2ccc(CCC(=O)NCCCO)cc2)cc1 [Example 151, 3-(4-{4-[(benzyl{2-methyl-3-[(methylsulfonyl)amino]phenyl}amino)methyl]phenoxy}phenyl)-N-(3-hydroxypropyl)propanamide] |
| 94.3 | 896 | Cc1c(NS(C)(=O)=O)cccc1N(Cc1ccccc1)Cc1ccc(Oc2ccc(CCC(=O)NCCO)cc2)cc1 [Example 152, 3-(4-{4-[(benzyl{2-methyl-3-[(methylsulfonyl)amino]phenyl}amino)methyl]phenoxy}phenyl)-N-(2-hydroxyethyl)propanamide] |
